# Source: US20090105301A1, “9A-SUBSTITUTED AZALIDES FOR THE TREATMENT OF MALARIA” (priority 2006, published 2009)
# Experiments:
# Plasmodium falciparum = details: non-immune patients, as compared to controls; cited from earlier work
# [1] = system: P. falciparum W2 (CDC/Indochina III, W-2); experiment: In vitro screening protocol I, [3H]-hypoxanthine incorporation, W2; type: cell-based, Plasmodium falciparum; details: In vitro screening protocol I, P. falciparum W2; for IC50: Plasmodium falciparum, read-out: IC50 W2
# Outline: (§1)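 Asexual blood-stage P. falciparum was cultured in human A+ erythrocytes at 37 °C under 5% CO2/5% O2, and growth was measured by [3H]-hypoxanthine incorporation over 72 h total. TM91C235 was prescreened at 25,000, 2,500 and 25 ng/ml in folate-free medium. D-6 and W-2 IC50s came from 11-point two-fold dilutions by logistic fit.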
# Plasmodium vivax = details: non-immune patients, as compared to controls; cited from earlier work
# Plasmodium cynomolgi = details: rhesus monkey; cited from earlier work
# [2] = system: Plasmodium falciparum strain W2; experiment: In vitro screening protocol II, [3H] hypoxanthine incorporation IC50 assay, W2; type: cell-based; details: P. falciparum W2; for IC50: Plasmodium falciparum
# Procedure: (§2) The protocol described here is a modification of the in vitro screening protocol I and the details of the methodology are given below.
# (§3) Plasmodium falciparum strains 3D7A and W2.
# (§4) The culture medium comprised RPMI 1640 with 25 mM HEPES, sodium bicarbonate and glutamine (GIBCO™ cat. ref.: 52400), supplemented with 10% of pooled human sera AB (Bioreclamation HMSRM-AB)) and HT supplement (0.15 mM hypoxanthine and 24 μM thymidine), (GIBCO™ cat. ref.: 41065). Human sera were decomplemented 30 min. at 56° C., aliquoted and stored frozen at −20° C. until use in this culture medium.
# (§5) This culture medium (“complete medium”) was usually prepared fresh just before use and pre-warmed to 37° C.
# (§6) Red blood cells AB− stock suspensions were prepared from whole blood bags coming from incomplete blood donation, provided by the Spanish Red Cross (<25 days after sampling). This “whole blood” was aliquoted and stored at 4° C.
# (§7) To prepare red blood cells for the assay, the whole blood was centrifuged and washed 3 times with RPMI without serum. The upper phase, containing white blood cells was removed. The washed red blood cells were kept as a 50% suspension in complete medium. The prepared cells were stored at 4° C. and were employed in the assay at any time up to 4 days after preparation.
# (§8) Test compounds were dissolved at 2 mg/ml in 100% DMSO on the day of the assay. If necessary, complete dissolution was achieved by gentle heating (the mixture was heated at a temperature <37° C.) and sonication (sonication bath).
# (§9) For IC50 determinations, 10 serial 2-fold dilutions were prepared in complete medium in the presence of a constant amount of DMSO. Any obvious signs of insolubility of the stock solutions in 100% DMSO or precipitation when these solutions were diluted in assay media, were recorded.
# (§10) Plasmodium falciparum strains were maintained in complete medium at 5% of hematocrit in continuous culture using a method adapted from Trager W. and Jensen J. B. (Human malaria parasites in continuous culture Science 193 (4254) (1976) 673-675) and Trager W. (Cultivation of malaria parasites Methods Cell Biol. 45 (1994) 7-26).
# (§11) The parasitemia was calculated by counting the percentage of parasitized erythrocytes by optical microscopy. Thin films of blood were made every day from each culture flask, fixed with methanol and stained for 10 min. in Giemsa (Merck, cat ref.: 1.09204) at 10% in buffered water pH 7.2. The glass slides were observed and counted with an optical microscope (Nikon, Eclipse E200) equipped with a 100× immersion oil objective.
# (§12) The culture was maintained at 5% of hematocrit, with a daily change of medium and was diluted when parasitemia had reached about 5%.
# (§13) [^3H] Hypoxanthine incorporation assay was conducted using a method adapted from Desjardins R. E. et al. (Quantitative assessment of antimalarial activity in vitro by a semiautomated microdilution technique. Antimicrob. Agents Chemother., 16 (6) (1979) 710-718). The assays were performed in 96 wells flat bottom microplates.
# (§14) 1. Serial dilutions of each test compound (25 μl of a 5× solution/well) were deposited in one row of assay microtiter plate. Compounds of this invention were tested in this assay. Chloroquine and Azithromycin were used as control compounds for each assay.
# (§15) 2. […] 100 μl of the resulting suspension was distributed into each well of columns 1-11 of assay microtiter plate leading to a final volume of 125 μl per well, at 1.2% of hematocrit and 0.4% of parasitemia/well.
# (§16) 3. In each plate, 2 columns were reserved for control wells: • Column 11 (comprising wells A11-H11): Positive control wells: Untreated PRBCs to compare with cultures treated with test compounds. • Column 12 (comprising wells A12-H12): • Background value wells: Uninfected RBCs—blank control to obtain the background reading from RBCs without parasites (at 1.2% of hematocrite value).
# (§17) 4. The plates were incubated at 37° C. under low oxygen atmosphere. […]
# P. falciparum TM91C235 = experiment: In vitro screening protocol I, [3H]-hypoxanthine incorporation, TM91C235; type: cell-based, Plasmodium falciparum; details: In vitro screening protocol I, P. falciparum TM91C235; for IC50: Plasmodium falciparum, read-out: IC50 TM91C235
# [3] = system: P. falciparum D6 (CDC/Sierra Leone I, D-6); experiment: In vitro screening protocol I, [3H]-hypoxanthine incorporation, D6; type: cell-based, Plasmodium falciparum; details: In vitro screening protocol I, P. falciparum D6; for IC50: Plasmodium falciparum, read-out: IC50 D6
# Outline: as §1
# [4] = system: Plasmodium falciparum strain 3D7A; experiment: In vitro screening protocol II, [3H] hypoxanthine incorporation IC50 assay, 3D7A; type: cell-based; details: P. falciparum 3D7A; for IC50: Plasmodium falciparum
# Procedure: as §2, §3, §4, §5, §6, §7, §8, §9, §10, §11, §12, §13, §14, §15, §16, §17
# Plasmodium berghei = details: cited from earlier work
# [5] = system: Plasmodium yoelii nigeriensis; details: cited from earlier work
molecule,measurement,setting,value
"CC[C@H]1OC(=O)[C@H](C)[C@@H](O[C@H]2C[C@@](C)(OC)[C@@H](O)[C@H](C)O2)[C@H](C)[C@@H](O[C@@H]2O[C@H](C)C[C@H](N(C)C)[C@H]2O)[C@](C)(O)C[C@@H](C)CN(C)[C@H](C)[C@@H](O)[C@]1(C)O [azithromycin, reference compound]",prophylactic efficacy,Plasmodium falciparum,71.6%
same,IC50,[1],2.8 to 3.5 µg/mL
same,prophylactic efficacy,Plasmodium vivax,98.9%
same,efficacy in monkey model,Plasmodium cynomolgi,active
same,IC50,[2],2.5 to 2.8 µg/mL
same,IC50,P. falciparum TM91C235,3.5 to 5 µg/mL
same,IC50,[3],1 to 2.5 µg/mL
"CC[C@H]1OC(=O)[C@H](C)[C@@H](O[C@H]2C[C@@](C)(OC)[C@@H](O)[C@H](C)O2)[C@H](C)[C@@H](O[C@@H]2O[C@H](C)C[C@H](N(C)C)[C@H]2O)[C@](C)(O)C[C@@H](C)CN(CCCNCc2cccc3ccccc23)[C@H](C)[C@@H](O)[C@]1(C)O [Example 8, 9a-{3-[(Naphtalen-1-yl-methyl)amino]propyl}-9-deoxo-9-dihydro-9a-aza-9a-homoerythromycin A]",IC50,[1],< 0.1 µg/mL
same,IC50,[2],< 0.1 µg/mL
same,IC50,[4],0.1 to 0.2 µg/mL
same,IC50,P. falciparum TM91C235,< 0.1 µg/mL
same,IC50,[3],< 0.1 µg/mL
midecamycinin,activity in mouse model,Plasmodium berghei,active
same,efficacy in monkey model,Plasmodium cynomolgi,no efficacy
same,activity in mouse model,[5],active
"CCC1OC(=O)C(C)C(OC2CC(C)(OC)C(O)C(C)O2)C(C)C(OC2OC(C)CC(N(C)C)C2O)C(C)(O)CC(C)CN(CCCNC(=O)Cc2ccc(OC)cc2)C(C)C(O)C1(C)O.O=CO (centres unmarked) [Example 58, 9a-[3-({[4-(Methyloxy)phenyl]acetyl}amino)propyl]-9-deoxo-9-dihydro-9a-aza-9a-homoerythromycin A Formiate Salt]",IC50 W2,[2],C (200 < X ≦ 1000)
same,IC50 3D7A,[4],G (3500 < X ≦ 5000)
"CC[C@H]1OC(=O)[C@H](C)[C@@H](O)[C@H](C)[C@@H](O[C@@H]2O[C@H](C)C[C@H](N(C)C)[C@H]2O)[C@](C)(O)C[C@@H](C)CN(CCCNCc2ccnc3ccccc23)[C@H](C)[C@@H](O)[C@]1(C)O [Example 15, 9a-{3-[(Quinolin-4-yl-methyl)amino]propyl}-3-O-decladinosyl-9-deoxo-9-dihydro-9a-aza-9a-homoerythromycin A]",IC50 W2,[1],B (100 < X ≦ 200)
same,IC50 W2,[2],C (200 < X ≦ 1000)
same,IC50 3D7A,[4],C (200 < X ≦ 1000)
same,IC50 TM91C235,P. falciparum TM91C235,C (200 < X ≦ 1000)
same,IC50 D6,[3],B (100 < X ≦ 200)
"CC[C@H]1OC(=O)[C@H](C)[C@@H](O[C@H]2C[C@@](C)(OC)[C@@H](O)[C@H](C)O2)[C@H](C)[C@@H](O[C@@H]2O[C@H](C)C[C@H](N(C)C)[C@H]2O)[C@](C)(O)C[C@@H](C)CN(CCCNCC2CCNc3ccccc32)[C@H](C)[C@@H](O)[C@]1(C)O (some centres unmarked) [Example 55, 9a-{3-[(1,2,3,4-tetrahydro-quinolin-4-yl-methyl)amino]propyl}-9-deoxo-9-dihydro-9a-aza-9a-homoerythromycin A]",IC50,[2],< 0.1 µg/mL
same,IC50,[4],0.2 to 1 µg/mL
"CCC1OC(=O)C(C)C(OC2CC(C)(OC)C(O)C(C)O2)C(C)C(OC2OC(C)CC(N(C)C)C2O)C(C)(O)CC(C)CN(CCCNC(=O)c2cc(F)c(F)c(OC)c2F)C(C)C(O)C1(C)O.O=CO (centres unmarked) [Example 59, 9a-[3-({[2,4,5-Trifluoro-3-(methyloxy)phenyl]carbonyl}amino)propyl]-9-deoxo-9-dihydro-9a-aza-9a-homoerythromycin A Formiate Salt]",IC50 W2,[2],B (100 < X ≦ 200)
same,IC50 3D7A,[4],D (1000 < X ≦ 2500)
